In US20240181022A1, “AMURINS LYSINS, AND LYSIN-ANTIMICROBIAL PEPTIDE (AMP) CONSTRUCTS ACTIVE AGAINST GRAM-NEGATIVE BACTERIA” (priority 2021, published 2024):
Converted amounts (≈) assume the structure as drawn. Where two headings read alike, the source gives them in different places. Where no end group is shown, it is not given here. [ ]: non-standard residue; d: D form.

Experiments:
S. maltophilia [1] = conditions: for MIC: S. maltophilia test organism of the sputum time-kill assay
S. maltophilia [2] = assay: Time-kill assay in cystic fibrosis patient sputum, S. maltophilia; type: cell-based, Stenotrophomonas maltophilia
Source text: (§1) Sputum from 5 cystic fibrosis patients was pooled. The resulting mixture was not filtered, as it was very dense and not amenable to sterilization by filtration. Sputum is known to be a complex mixture of DNA, carbohydrates, and lipids ([…], 2016). As used herein, the term “sputum” refers to the mucus present in the respiratory tract of an animal, such as a human. Sputum may increase in thickness due to the irritation or infection, including bacterial infection, and in some instances, may be expelled by the animal while coughing. In certain instances, cystic fibrosis may be characterized by the presence of a thick, sticky mucus or sputum present in the lungs of cystic fibrosis patients. The activity of GN370, AM1, AM2, AM3, and meropenem was determined in the sputum using a time-kill assay format as disclosed in Zhang et al., Antimicrobial peptide therapeutics for cystic fibrosis, Antimicrobial Agents Chemother. 2005; 49(7):2921-2927. […] Untreated controls were included in addition to pretreatment plating (t=0) for a baseline CFU determination. Activity was also determined in the absence of sputum for comparison to activity observed in the presence of sputum.

A. xylosoxidans [3] = type: cell-based, Achromobacter xylosoxidans; conditions: for MIC50 / MIC90: A. xylosoxidans isolates; for MIC: A. xylosoxidans test organism of the sputum time-kill assay
Procedure: MIC values were determined using a modification of the standard broth microdilution reference method defined by the Clinical and Laboratory Standards Institute (CLSI), CLSL. 2015. Methods for Dilution Antimicrobial Susceptibility Tests for Bacteria That Grow Aerobically; Approved Standard-10th Edition. Clinical and Laboratory Standards Institute, Wayne, PA. The modification was based on the replacement of Mueller Hinton Broth with either CAA media (with and without NaCl) or CAA supplemented with 2.5% human serum. MIC is the minimum concentration of peptide sufficient to suppress at least 80% of the bacterial growth compared to control.
The MICs for were determined as described below using the broth microdilution method for meropenem, GN370, AM1, AM2, and AM3. The results are shown below in Tables 8-12.
The activity of GN370 and AM1 was evaluated against various bacterial isolates, including mucoid and α-hemolytic isolates of P. aeruginosa, MDR isolates, and carbapenem-resistant isolates.

A. xylosoxidans [4] = assay: Time-kill assay in cystic fibrosis patient sputum, A. xylosoxidans; type: cell-based, Achromobacter xylosoxidans
Source text: as §1

S. maltophilia [5] = test system: S. maltophilia
Procedure: (§2) Biofilms are then washed and treated with e.g., a 2-fold dilution series of the lysin in TSBg at e.g., 37° C. for 24 hours. After treatment, wells are washed, air-dried at e.g., 37° C. and stained with e.g., 0.05% crystal violet for 10 minutes.
(§3) The antibiofilm activity of GN370, AM1, AM2, and AM3 was evaluated against various Gram-negative bacteria prevalent in cystic fibrosis patients, including P. aeruginosa, S. maltophilia, and A. xylosoxidans.
(§4) The MBEC (after 2-hour treatments) was determined as described in Jones and Wozniak, PsI Produced by Mucoid Pseudomonas aeruginosa Contributes to the Establishment of Biofilms and Immune Evasion, Am. […] Microbiol.

A. xylosoxidans [6] = test system: A. xylosoxidans
Procedure: as §2, §3, §4

B. multivorans = test system: B. multivorans
Procedure: as §2, §3, §4

B. cenocepacia = type: cell-based, Burkholderia cenocepacia
Procedure: (§5) The MBEC (after 2-hour treatments) was determined as described in Jones and Wozniak, PsI Produced by Mucoid Pseudomonas aeruginosa Contributes to the Establishment of Biofilms and Immune Evasion, Am. Soc. Microbiol. 2017, 8(3):e00864-17. Meropenem and tobramycin were included as controls and were both poorly active, with MBEC90 values of >256 μg/mL (data not shown).

Mycobacterium species = type: cell-based
P. apista = type: cell-based, Pandoraea apista
Procedure: as §5

M. intracellulare = assay: MIC against M. intracellulare; type: cell-based, Mycobacterium intracellulare; conditions: M. intracellulare (ATCC 13950); CAAT media
M. scrofulaceum = assay: MIC against M. scrofulaceum; type: cell-based, Mycobacterium scrofulaceum; conditions: M. scrofulaceum (ATCC 19981); CAAT media
M. fortuitum = assay: MIC against M. fortuitum; type: cell-based, Mycobacterium fortuitum; conditions: M. fortuitum (ATCC 6841); CAAT media
[7] = P. aeruginosa test organism of the sputum time-kill assay
[8] = all tested isolates, Tables 8-12

## C[C@@H](O)[C@H]1C(=O)N2C(C(=O)O)=C(S[C@@H]3CN[C@H](C(=O)N(C)C)C3)[C@H](C)[C@H]12 [meropenem, reference compound]
S. maltophilia [1]; S. maltophilia isolates
  MIC50: > 32 µg/mL
  MIC90: > 32 µg/mL
S. maltophilia [1]
  MIC: Meropenem (MIC = 32)
S. maltophilia [2]
  activity in the presence and absence of sputum: poorly active
S. maltophilia [2]; absence of sputum, 1 hr
  Log10 CFU/mL of sputum: 5.04 Log10 CFU/mL of sputum
S. maltophilia [2]; absence of sputum, 3 hr
  Log10 CFU/mL of sputum: 4.7 Log10 CFU/mL of sputum
S. maltophilia [2]; absence of sputum, 24 hr
  Log10 CFU/mL of sputum: 7.95 Log10 CFU/mL of sputum
S. maltophilia [2]; presence of 10% sputum, 1 hr
  Log10 CFU/mL of sputum: 3.78 Log10 CFU/mL of sputum
S. maltophilia [2]; presence of 10% sputum, 3 hr
  Log10 CFU/mL of sputum: 4.26 Log10 CFU/mL of sputum
S. maltophilia [2]; presence of 10% sputum, 24 hr
  Log10 CFU/mL of sputum: 6.3 Log10 CFU/mL of sputum
A. xylosoxidans [3]
  MIC50: 4 µg/mL (≈ 10.4 µM)
  MIC90: > 32 µg/mL
  MIC: Meropenem (MIC = 0.25)
P. aeruginosa; P. aeruginosa isolates
  MIC50: 4 µg/mL (≈ 10.4 µM)
  MIC90: 32 µg/mL (≈ 83.4 µM)
P. aeruginosa; [7]
  MIC: (MIC = 0.125)
P. aeruginosa; […], before serial passage
  MIC: 0.5 µg/mL (≈ 1.3 µM)
A. xylosoxidans [4]
  activity in the presence and absence of sputum: poorly active
A. xylosoxidans [4]; absence of sputum, 1 hr
  Log10 CFU/mL of sputum: 4.9 Log10 CFU/mL of sputum
A. xylosoxidans [4]; absence of sputum, 3 hr
  Log10 CFU/mL of sputum: 5.3 Log10 CFU/mL of sputum
A. xylosoxidans [4]; absence of sputum, 24 hr
  Log10 CFU/mL of sputum: 7.3 Log10 CFU/mL of sputum
A. xylosoxidans [4]; presence of 10% sputum, 1 hr
  Log10 CFU/mL of sputum: 4.78 Log10 CFU/mL of sputum
A. xylosoxidans [4]; presence of 10% sputum, 3 hr
  Log10 CFU/mL of sputum: 4.3 Log10 CFU/mL of sputum
A. xylosoxidans [4]; presence of 10% sputum, 24 hr
  Log10 CFU/mL of sputum: 7.56 Log10 CFU/mL of sputum

## M[dR]L[dK]MA[dR][dR][dR]Y[dR]LP[dR][dR][dR]S[dR][dR]LFS[dR]TAL[dR]MHP[dR]N[dR]L[dR][dR]IM[dR]GGI[dR]F [AM2]
S. maltophilia [5]
  MBEC50: 1 µg/mL
  MBEC90: 2 µg/mL
  MBEC Range: 0.125 to 4 µg/mL
S. maltophilia [5]; 2-hour treatments
  antibiofilm activity (MBEC) against S. maltophilia: highly active
A. xylosoxidans [6]
  MBEC50: 2 µg/mL
  MBEC90: 8 µg/mL
  MBEC Range: 0.125 to 32 µg/mL
B. multivorans
  MBEC50: 2 µg/mL
  MBEC90: 16 µg/mL
  MBEC Range: 1 to 16 µg/mL
S. maltophilia [1]; S. maltophilia isolates
  MIC50: 0.5 µg/mL
  MIC90: 1 µg/mL
S. maltophilia [1]; S. maltophilia isolates, in µg/mL
  MIC Range: 0.03-2
S. maltophilia [1]
  MIC: AM2 (MIC = 0.5)
S. maltophilia [1]; [8]
  activity (MIC) against S. maltophilia isolates: highly active
S. maltophilia [2]; 10% CF sputum vs no sputum
  effect of sputum on antibacterial activity: none of GN370, AM1, AM2, and AM3 was inhibited
S. maltophilia [2]; absence of sputum, 1 hr
  Log10 CFU/mL of sputum: 2.3 Log10 CFU/mL of sputum
S. maltophilia [2]; absence of sputum, 3 hr
  Log10 CFU/mL of sputum: 2.3 Log10 CFU/mL of sputum
S. maltophilia [2]; absence of sputum, 24 hr
  Log10 CFU/mL of sputum: 2.3 Log10 CFU/mL of sputum
S. maltophilia [2]; presence of 10% sputum, 1 hr
  Log10 CFU/mL of sputum: 2.3 Log10 CFU/mL of sputum
S. maltophilia [2]; presence of 10% sputum, 3 hr
  Log10 CFU/mL of sputum: 2.3 Log10 CFU/mL of sputum
S. maltophilia [2]; presence of 10% sputum, 24 hr
  Log10 CFU/mL of sputum: 2.3 Log10 CFU/mL of sputum
S. maltophilia [2]; time-kill
  killing by 1 hour, maintained at 24 hours: complete killing
B. cenocepacia
  MBEC50: 16 µg/mL
  MBEC90: 32 µg/mL
  MBEC Range: 2 to 32 µg/mL
Mycobacterium species
  activity (MIC) against Mycobacterium species: highest activity
P. apista
  MBEC50: 8 µg/mL
  MBEC90: 16 µg/mL
M. intracellulare
  MIC: 0.5 µg/mL
A. xylosoxidans [3]
  MIC50: 2 µg/mL
  MIC90: 64 µg/mL
  MIC: AM2 (MIC = 1)
P. aeruginosa; P. aeruginosa isolates
  MIC50: 0.06 µg/mL
  MIC90: 0.25 µg/mL
  MIC Range: 0.016-0.5^
P. aeruginosa; [7]
  MIC: (MIC = 0.25)
P. aeruginosa; [8]
  activity (MIC) against P. aeruginosa isolates: highly active
M. scrofulaceum
  MIC: 16 µg/mL
M. fortuitum
  MIC: 4 µg/mL
A. xylosoxidans [4]; 10% CF sputum vs no sputum
  effect of sputum on antibacterial activity: none of GN370, AM1, AM2, and AM3 was inhibited
A. xylosoxidans [4]; absence of sputum, 1 hr
  Log10 CFU/mL of sputum: 3.3 Log10 CFU/mL of sputum
A. xylosoxidans [4]; absence of sputum, 3 hr
  Log10 CFU/mL of sputum: 2.3 Log10 CFU/mL of sputum
A. xylosoxidans [4]; absence of sputum, 24 hr
  Log10 CFU/mL of sputum: 2.3 Log10 CFU/mL of sputum
A. xylosoxidans [4]; presence of 10% sputum, 1 hr
  Log10 CFU/mL of sputum: 2.3 Log10 CFU/mL of sputum
A. xylosoxidans [4]; presence of 10% sputum, 3 hr
  Log10 CFU/mL of sputum: 2.3 Log10 CFU/mL of sputum
A. xylosoxidans [4]; presence of 10% sputum, 24 hr
  Log10 CFU/mL of sputum: 2.3 Log10 CFU/mL of sputum
A. xylosoxidans [4]; time-kill
  killing by 1 hour, maintained at 24 hours: complete killing
